These results are taken from PMC10518255, “A first-in-class pan-lysyl oxidase inhibitor impairs stromal remodeling and enhances gemcitabine response and survival in pancreatic cancer” (Nature Cancer, 2023).

For one assay, the target named is T1, DAO (Homo sapiens, UniProt P19801).
T1 sequence (P19801 20-751): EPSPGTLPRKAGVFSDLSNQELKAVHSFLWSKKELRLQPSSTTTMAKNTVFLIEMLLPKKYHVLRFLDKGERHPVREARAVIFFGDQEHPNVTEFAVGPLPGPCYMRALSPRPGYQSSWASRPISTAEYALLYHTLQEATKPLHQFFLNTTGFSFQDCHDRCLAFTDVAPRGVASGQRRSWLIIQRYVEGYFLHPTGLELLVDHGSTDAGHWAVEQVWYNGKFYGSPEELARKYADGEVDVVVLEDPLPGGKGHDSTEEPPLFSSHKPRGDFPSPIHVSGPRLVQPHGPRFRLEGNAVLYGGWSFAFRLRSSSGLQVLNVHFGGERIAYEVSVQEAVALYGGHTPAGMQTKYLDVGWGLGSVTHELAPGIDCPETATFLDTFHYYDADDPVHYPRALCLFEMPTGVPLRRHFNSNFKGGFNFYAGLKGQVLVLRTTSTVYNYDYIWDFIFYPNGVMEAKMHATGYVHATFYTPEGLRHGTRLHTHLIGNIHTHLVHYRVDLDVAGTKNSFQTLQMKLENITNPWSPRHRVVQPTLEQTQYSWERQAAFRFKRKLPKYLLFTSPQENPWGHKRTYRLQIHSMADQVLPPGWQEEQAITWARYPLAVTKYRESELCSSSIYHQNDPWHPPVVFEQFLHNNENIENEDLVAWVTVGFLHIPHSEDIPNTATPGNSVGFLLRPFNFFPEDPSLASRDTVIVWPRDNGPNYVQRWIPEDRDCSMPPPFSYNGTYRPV
Nature of the assay: Substrate turnover by H2O2 release, amplex red coupled fluorometric activity assay (Extended Data Fig. 3a). In kind it is biochemical. An excerpt:
(§1) Specifically, BAPN is oxidized by diamine oxidase (DAO) and semicarbazide-sensitive amine oxidase (SSAO)/vascular adhesion protein 1 (VAP-1) in the vasculature (Extended Data Fig. 3a), which releases hydrogen […] (H2O2) and aldehyde in humans leading to toxicity.
(§2) Data presented as mean values +/− SD. f. […] Data presented as mean values +/− SD. […] Data presented as mean values +/− SD. […] Data presented as mean values +/− SD. Ordinary one-way ANOVA for multiple comparison test performed. Source data

The next assay addresses T2, SSAO (Homo sapiens, UniProt Q16853).
T2 sequence (Q16853 1-763): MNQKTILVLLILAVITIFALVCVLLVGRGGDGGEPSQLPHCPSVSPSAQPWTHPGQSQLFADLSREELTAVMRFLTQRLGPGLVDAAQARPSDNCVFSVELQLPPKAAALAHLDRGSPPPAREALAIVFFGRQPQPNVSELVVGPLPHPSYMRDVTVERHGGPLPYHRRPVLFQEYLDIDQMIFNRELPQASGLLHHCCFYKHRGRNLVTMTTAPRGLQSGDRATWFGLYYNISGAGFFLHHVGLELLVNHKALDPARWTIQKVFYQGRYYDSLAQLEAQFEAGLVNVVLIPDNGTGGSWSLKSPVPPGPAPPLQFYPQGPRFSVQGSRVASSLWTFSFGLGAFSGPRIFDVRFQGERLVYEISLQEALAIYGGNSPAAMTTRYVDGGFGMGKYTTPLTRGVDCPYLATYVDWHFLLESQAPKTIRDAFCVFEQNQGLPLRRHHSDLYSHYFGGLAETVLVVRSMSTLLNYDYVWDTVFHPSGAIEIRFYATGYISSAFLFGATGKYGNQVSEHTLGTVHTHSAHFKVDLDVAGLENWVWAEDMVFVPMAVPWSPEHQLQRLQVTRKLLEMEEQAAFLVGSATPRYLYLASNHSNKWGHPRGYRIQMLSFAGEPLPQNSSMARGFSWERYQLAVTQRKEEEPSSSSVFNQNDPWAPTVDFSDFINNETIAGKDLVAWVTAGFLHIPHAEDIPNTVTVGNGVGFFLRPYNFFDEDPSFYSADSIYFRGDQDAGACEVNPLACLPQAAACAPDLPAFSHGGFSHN
Described as above. In kind it is biochemical.
Description: as §1, §2

The test system of another assay is KPC CCs. Nature of the assay: Cancer cell invasion into CAF-remodeled 3D organotypic matrices. The following applies: PXS-5120 100 nM. The format is cell-based, mouse. Here is the method:
(§3) Fig. 3 PXS-5505 inhibition of CAF remodeling in vitro. a, Quantitative PCR with reverse transcription (qRT–PCR) showing in vitro comparison of KPC CAF relative expression of lysyl oxidase family members compared to KPC CCs from the same model (n = 3 biologically independent samples). Comparisons were determined by 2^–∆∆Ct approach. b, Representative images of 3D organotypic matrix contraction assay at days 2, 6 and 12 in the absence (gray) or presence (pink) of PXS-5505 (30 µM). Scale bars, 5 mm. Comparison of measured area of matrices between control and PXS-5505 treatment groups over time (n = 3 technical samples examined over three biologically independent samples). Data are mean ± s.d. c, Concentration of immature divalent DHLNL and mature trivalent Pyr collagen crosslinks determined by LC–MS from control and PXS-5505-treated organotypic matrices at day 12 (n = 3 technical samples examined over two biologically independent samples). Data are mean ± s.d. […] Data are presented as mean ± s.d. […] Comparison of number of CCs invaded per field of view (FOV) as determined by H&E and PanCK staining (nine images taken from three technical samples from each of three biologically independent contracted matrices), normalized to control. Data are mean ± s.d. Scale bars, 100 μm. […] Source data
Following remodeling, 4 × 10^4 KPC CCs were seeded on top of the remodeled matrix in DMEM supplemented with 10% FBS and 1% penicillin–streptomycin and allowed to grow to confluence for 4 days, after which matrices were transferred to an air–liquid interface and CCs allowed to invade into the organotypic matrices for 12 days (Extended Data Fig. 4f). PXS-5505 (30 μM) or PXS-5120 (100 nM) was added to medium at 48-h intervals for the duration. At the end point, matrices were fixed in 10% formalin and processed for histological analysis by H&E and panCK staining. The invasive index was measured in three representative areas per matrix and the number of invaded cells per mm^2 was calculated. No statistical methods were used to predetermine sample sizes but our sample sizes are similar to those reported in previous publications[36],[39].
Extended Data Fig. 4 PXS-5505 inhibits collagen cross-linking by PDAC CAFs in vitro resulting in decreased cancer cell invasion. a. Schematic of organotypic matrix remodeling assay whereby CAFs are embedded into a 3D collagen matrix and growth media supplemented with or without PXS-5505 to inhibit lysyl oxidase family activity b. Chemical structures of lysyl oxidase family catalyzed hydroxyallysine or allysine residues and the subsequent divalent and trivalent bonds that are formed that can be quantified by mass spectrometry. c. Representative images of 3D organotypic matrix contraction by human pancreatic cancer CAFs at days 2, 6 and 12 in the absence (gray) and presence (pink) of PXS-5505 (30 µM). Scale bars = 5 mm. […] Data presented as mean values +/− SD. d. […] Data presented as mean values +/− SD. Relative fold expression of LOXL family members compared to LOX were determined by 2^–∆∆Ct approach. f. […] Comparison of measured area of matrices between control, PXS-5120 and PXS-5505 treatment groups (n = 3) over time. i. […] Representative images of invasion of KPC cancer cells into a contracted organotypic matrix as determined by H&E staining. […]

The subject of assay [1] is KPC CAF remodeled 3D collagen matrices. Nature of the assay: Matrix stiffness by unconfined compression testing of organotypic matrices. The format is cell-based, mouse. As to conditions: PXS-5120 100 nM, day 12. Here is the method:
as §3, with “data […]” for “data”

Where [2] appears, read: listed as value 30 (unit not given).
Where [3] appears, read: listed as value 60 (unit not given).
[4] abbreviates: listed as value 300 (unit not given).

Molecules are shown by their SMILES.

As to `N#CCCN` [BAPN, β-aminopropionitrile, reference compound], the “processing as a substrate by DAO” value on DAO is recorded as “oxidized”. The “Turnover by DAO as measured by H2O2 release, mean” value on DAO (setting [2]) worked out at 3.75; at DAO (setting [3]), 4.64; on DAO (setting [4]), 5.888. The “processing as a substrate by SSAO/VAP-1” value at SSAO is recorded as “oxidized”. The “Turnover by SSAO as measured by H2O2 release, mean” value worked out at 1.3236 at SSAO (setting [2]), 1.5791 on SSAO (setting [3]) and 2.4689 at SSAO (setting [4]).
Consider `Cc1c(-c2cccc(S(=O)(=O)N(C)C)c2)c2cc(C(=O)O)ccc2n1C/C(F)=C/CN` [PXS-5120, reference compound], for which, in the assay with KPC CCs, the CC invasion entry is “does not lead to decreased CC invasion”. Also, the “stiffening of 3D collagen matrices” value in assay [1] is recorded as “does not significantly block stiffening”.
